Laboratory results from patent publication US6156899A, “N-aryl-2-hydroxyalkylamido compositions for inducing/stimulating hair growth and/or retarding hair loss and/or for treating hyperseborrhea and/or acne” (Societe L'Oreal S.A., priority 1997, dated 2000).
pIC50: −log10 of the molar value. Where two headings read alike, the source gives them in different places.

Experiments:
androgen receptor = target: T1, androgen receptor (Rattus norvegicus, UniProt P15207); assay: Affinity (IC50) for the androgen receptor: inhibition of the binding of testosterone (Schilling and Liao technique)
T1 sequence (P15207 1-902): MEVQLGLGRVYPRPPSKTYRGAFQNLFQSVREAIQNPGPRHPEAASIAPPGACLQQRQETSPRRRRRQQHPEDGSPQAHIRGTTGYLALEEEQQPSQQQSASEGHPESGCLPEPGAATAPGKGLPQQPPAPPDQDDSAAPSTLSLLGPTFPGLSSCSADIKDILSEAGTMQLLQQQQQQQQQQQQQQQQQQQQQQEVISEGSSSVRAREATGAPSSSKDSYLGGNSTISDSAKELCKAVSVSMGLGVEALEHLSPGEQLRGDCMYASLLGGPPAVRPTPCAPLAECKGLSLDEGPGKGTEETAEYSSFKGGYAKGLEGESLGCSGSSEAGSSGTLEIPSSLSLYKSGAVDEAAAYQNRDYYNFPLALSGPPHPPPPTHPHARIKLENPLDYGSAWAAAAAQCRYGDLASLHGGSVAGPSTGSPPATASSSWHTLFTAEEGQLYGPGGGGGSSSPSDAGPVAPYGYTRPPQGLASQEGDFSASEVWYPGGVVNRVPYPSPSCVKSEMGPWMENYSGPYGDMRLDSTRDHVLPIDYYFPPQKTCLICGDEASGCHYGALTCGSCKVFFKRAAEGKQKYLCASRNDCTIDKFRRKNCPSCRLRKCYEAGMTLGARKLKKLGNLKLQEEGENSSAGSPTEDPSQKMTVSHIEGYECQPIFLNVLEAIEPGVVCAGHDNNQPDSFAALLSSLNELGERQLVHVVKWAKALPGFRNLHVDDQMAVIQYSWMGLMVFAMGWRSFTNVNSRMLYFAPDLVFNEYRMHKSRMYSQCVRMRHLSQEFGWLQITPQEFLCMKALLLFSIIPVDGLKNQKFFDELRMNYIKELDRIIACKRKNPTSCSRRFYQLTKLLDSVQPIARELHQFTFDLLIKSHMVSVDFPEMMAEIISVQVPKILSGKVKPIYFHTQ
Experimental: Measurement of the Affinity (IC50) of the Ethyl Ester of (4-Cyano-3-(trifluoromethyl)phenyl)(3,3,3-trifluoro-2-hydroxy-2-methylpropionyl)carbamic Acid (Example 1) and of (4-Cyano-3-(trifluoromethyl)phenyl)(3,3,3-trifluoro-2-hydroxy-2-methylpropionyl)carbamic Acid (Example 2) for the Androgen Receptor:
These measurements of receptor affinity for the androgen receptor were carried out according to the technique of Schilling and Liao, described in The Prostate, 5, p. 581-588 (1984).
During the experimentation, the reference molecule (mibolerone) was tested in parallel at 8 concentrations, in order to validate the experiment.

[1] = system: rings of the thoracic region of the aorta (aortic smooth muscles); assay: Potassium channel opener activity: in vitro relaxant power on rings of the thoracic region of the aorta contracted with KCl; format: cell-based; details: for mixed activity (potassium channel opener/antiandrogen): conclusion from Tables I and II; for pIC50: read-out: Inhibition contraction isolated aorta induced by K+: IC50
Experimental: Measurement of the Activity of "Potassium Channel Opener" Type of the Ethyl Ester of (4-Cyano-3-(trifluoromethyl)phenyl)(3,3,3-trifluoro-2-hydroxy-2-methylpropionyl)carbamic Acid (Example 1) and of (4-cyano-3-(trifluoromethyl)phenyl)(3,3,3-trifluoro-2-hydroxy-2-methylpropionyl)carbamic Acid (Example 2) by the in Vitro Measurement of the Relaxant Power of the Molecules on Rings of the Thoracic Region of the Aorta (IC50):
The experiments were carried out according to the techniques of Newgreen et al. (Br. J. Pharmacol., 100, p. 605-613 (1990)), Bray et al. (Arch. Pharmacol., 344, p. 351-359 (1991)) and Wickerden et al. (Br. J. Pharmacol., 103, 1148-1152 (1991)).
After they had been mounted into the isolated organ vessels, the tissues (aortic smooth muscles) were subjected to an initial tension of 2 g.
After an equilibration period, the tissues were exposed to a potassium chloride solution (20 mM KCl), in order to obtain a sustained contractile response.
After stabilization of this contractile response, the relaxant activity (of potassium channel opener type) of the test molecules was evaluated as a function of the concentration applied.
During the experimentation, two reference molecules were employed: cromakalim and minoxidil.

[2] = 20 mM KCl, thoracic aorta rings, initial tension 2 g

Structure (SMILES): CCOC(=O)N(C(=O)C(C)(O)C(F)(F)F)c1ccc(C#N)c(C(F)(F)F)c1 (centres unmarked) [Example 1, Ethyl Ester of (4-Cyano-3-(trifluoromethyl)phenyl)(3,3,3-trifluoro-2-hydroxy-2-methylpropionyl)carbamic Acid]
- pIC50 (androgen receptor): 5.70
- mixed activity (potassium channel opener/antiandrogen) [1]: mixed activity
- pIC50 [1]: 5.70

Structure (SMILES): CC(O)(C(=O)N(C(=O)O)c1ccc(C#N)c(C(F)(F)F)c1)C(F)(F)F (centres unmarked) [Example 2, (4-Cyano-3-(trifluoromethyl)phenyl)(3,3,3-trifluoro-2-hydroxy-2-methylpropionyl)carbamic Acid]
- pIC50 (androgen receptor): 5.40
- mixed activity (potassium channel opener/antiandrogen) [1]: mixed activity
- pIC50 [1]: 5.52

Structure (SMILES): CC1(C)Oc2ccc(C#N)cc2C(N2CCCC2=O)C1O (centres unmarked) [cromakalim, reference compound]
- pIC50 [1, 2]: ~6.00

Structure (SMILES): Nc1cc(N2CCCCC2)nc(N)[n+]1[O-] [minoxidil, 2,4-diamino-6-piperidinopyrimidine 3-oxide, reference compound]
- pIC50 [1, 2]: ~6.00
